SMILES strings stand for the structures. Like-named read-outs stand apart in the source and are kept apart here.

The values below come from patent publication EP0726764B1, “MULTILAMELLAR LIPOSOMAL ARACHIDONIC ACID METABOLITE FORMULATIONS” (THE LIPOSOME COMPANY, INC., priority 1993, dated 1995).

The conditions of series [1]: cited from earlier work.
The subject of the next series is infarct size. The following applies: continuous arterial infusion over a six-hour period, free (non-liposomal); cited from earlier work.
Another series relates to LPS-induced death. Put plainly: Rat endotoxemia model, LPS-induced mortality. It counts as in vivo, Male Sprague-Dawley rats. The settings on record: 50 µg/kg LPS i.v. at time 0, PGE1 40 µg/kg i.v. simultaneously.
Series [2] relates to acute myocardial infarction. The settings on record: slow intracoronary infusion together with intracoronary streptokinase; cited from earlier work.
The next series has as its system adjuvant arthritis. Put plainly: Rat adjuvant arthritis (complete Freund's adjuvant). Type of series: in vivo, Male Lewis rats.
For series [3], the system named is leukocyte extravasation from the peripheral vasculature to sites of inflammation. Put plainly: Rat subcutaneous air pouch, fMLP-induced inflammation. Type of series: in vivo, Male Sprague-Dawley rats. The following applies: visual examination of post-stimulation air pouch lining. The protocol:
• Figure 1. Release of PGE1 from MLVs. The release of prostaglandin E1 (PGE1) from multilamellar vesicles (MLVs) comprising egg phosphatidylcholine (EPC) or dipalmitoyl phosphatidylcholine (DPPC) formed in 50 mM citrate buffer, pH 4.5, and then incubated at room temperature in pH 7.1 buffer for the indicated amount of time, is set forth. X-axis: time (minutes); y-axis: percent PGE1 retained in pelleted liposomes. • Figure 2. Rat Air Pouch Studies. Liposomal PGE1 formulations inhibit the extravasation of leukocytes from the vasculature to the rat air pouch. Subcutaneous air pouches were formed in male Sprague-Dawley rats. fMLP (2.15 µg) was injected directly into the air pouch at time 0, and free or liposomal PGE1 was simultaneously injected intravenously. After six hours, the air pouch exudate was collected and the air pouch total cell population determined. For each treatment group, n=4. […] After six hours, the air pouch exudate was collected, and the air pouch total cell population determined. […] After six hours, the air pouch exudate was collected, and the air pouch total cell population determined. […] After six and 24 hours, the air pouch exudates were collected, and the air pouch total cell populations were determined. […]

A further series concerns restenosis. The settings on record: intracoronary infusion over a 24-hour period; cited from earlier work.

Regarding `CCCCCC(C)(O)/C=C/[C@H]1[C@H](O)CC(=O)[C@@H]1CCCCCCC(=O)O` (some centres unmarked) [15-methyl-PGE1], in series [1] (free stable prostaglandin analog), the bioavailability is at least 8 h.
In the case of `CCCCC[C@H](O)/C=C/[C@@H]1[C@H]2C/C(=C/CCCC(=O)O)O[C@H]2C[C@H]1O` [PGI2], in the series on infarct size, the “reducing the infarct size” value is “scant effect”.
As to `CCCCC[C@H](O)/C=C/[C@H]1[C@H](O)CC(=O)[C@@H]1CCCCCCC(=O)O` [free PGE1, prostaglandin E1], in the series on LPS-induced death, the LPS induced mortality result is “increased both the rate and magnitude of LPS induced mortality”. In addition, in series [2], the “clinical results versus intracoronary streptokinase alone” value is “positive clinical results”. For the same compound, the “inhibition of arthritis progression, treatment begun 10 days post-adjuvant” value in the series on adjuvant arthritis (10 µg/kg beginning at day 10, every second day) was “still receive protection horn disease progression, although the inhibition of arthritis progression was not as profound”. Besides, the “progression of adjuvant arthritis (weight gain, joint edema)” value in the series on adjuvant arthritis (10 µg/kg, injections every second day) was “attenuated the progression of adjuvant arthritis”. The “subjective scoring of general health and mobility” value with adjuvant arthritis (10 µg/kg, scored at day 14) was “maintenance of general health and mobility”. Also, the “vascular reactivity and number of leukocytes invading the pouch lining” value in series [3] is “reduction in vascular reactivity and a concurrent reduction in the number of leukocytes invading the pouch lining”. In addition, the “reduction of the rate of restenosis six months after angioplasty versus untreated control group” value with restenosis is listed as about 50%. Moreover, the bioavailability in series [1] (free PGE1) was under 0.25 h. Moreover, in the series on infarct size, the “reducing the infarct size” value is recorded as “scant effect”.
